The results in this text go back to ChEMBL document CHEMBL3887005, “N-cyclopropyl-N-piperidinyl-amides, pharmaceutical compositions containing them, and uses thereof” (2016).

For this assay, the target named is T1, Glucose-dependent insulinotropic receptor (Homo sapiens, UniProt Q8TDV5).
T1 sequence (Q8TDV5 whole entry): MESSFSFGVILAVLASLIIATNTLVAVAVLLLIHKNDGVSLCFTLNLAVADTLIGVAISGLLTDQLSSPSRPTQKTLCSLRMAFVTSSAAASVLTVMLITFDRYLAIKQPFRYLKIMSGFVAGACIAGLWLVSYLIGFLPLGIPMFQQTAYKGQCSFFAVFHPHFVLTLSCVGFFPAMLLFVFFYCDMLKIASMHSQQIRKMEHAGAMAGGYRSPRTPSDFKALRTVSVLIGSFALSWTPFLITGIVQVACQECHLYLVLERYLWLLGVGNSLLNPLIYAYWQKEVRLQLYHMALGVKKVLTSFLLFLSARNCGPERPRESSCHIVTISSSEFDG
Put plainly: AlphaScreen cAMP Assay: MIN6 cells [Miyazaki J et al. Endocrinology. 1990 July; 127(1):126-32] are stably transfected with an expression vector for human GPR119 cDNA (Acc. No. NP_848566). Min-6/hGPR119 cells are cultured in DMEM, 10% FBS, 50 uM β-mercaptoethanol, 0.3 mg/mL Geniticin, 2 mM GlutaMAX at 37° C. 5% CO2. For the assay, the cells are seeded in Optiplates (white, 384-well, 160W-barcoded, TC, sterile with lid, Cat. No. #6007688 (Perkin Elmer); 10000 cells/well; 50 ul). The plates covered with lids are then incubated for 24 hours at 37° C./5% CO2. After the medium is aspirated from the wells completely, 10 ul of the test compound are added, the compounds are diluted using stimulating buffer (140 mM NaCl, 3.6 mM KCl, 0.5 mM NaH2PO4, 0.5 mM MgSO4, 1.5 mM CaCl2, 10 mM Hepes, 5 mM NaHCO3; pH 7.4. 0.5 mM IBMX and 0.1% BSA, the final DMSO concentration is 1%). After 45 minutes incubation at room temperature (approx. 20° C.), the cAMP concentrations are determined using the AlphaScreen cAMP Assay Kit (Cat. No. #6760625R from PerkinElmer). […]. The format is functional, cell-based.

`CC(C)(C)OC(=O)N1CCC(N(C(=O)c2ccc(-c3ccc(CS(C)(=O)=O)cc3)cc2)C2CC2)CC1`: the EC50 worked out at 57 nM.

In the case of `O=C(OC1CCCCC1)N1CCC(N(C(=O)c2ccc(-c3cnco3)cc2)C2CC2)CC1`, the concentration giving a half-maximal response (EC50) came to 59 nM.

For orientation: EC50 means the concentration giving half of the maximal effect.
